Test: HILIC, Waters ACQUITY UPLC BEH Amide, 100 × 2.1 mm, 1.7 µm; A: water + 0.125% formic acid + 10 mM ammonium formate; B: 5% water + 95% acetonitrile + 0.125% formic acid + 10 mM ammonium formate; gradient (min/%B) 0/100 2/100 7.7/70 9.5/40 10.25/30 12.75/100 17/100
Settings: stereoisomer not certain

Structure (SMILES)	LC retention time [min]
COc1cc(CNC(=O)CCCCC=CC(C)C)ccc1O [Capsaicin]	1
Cn1nnc2c(C(N)=O)ncn2c1=O [Temozolomide]	1.33
CC(=O)NCCCCCCNC(C)=O	1.5
O=P(O)(O)OCC(O)C(O)C(O)C(O)CO (configuration not stated) [Sorbitol-6-phosphate]	9.75
CC12CCC3C4CCC(=O)C=C4CCC3C1CCC2O (configuration not stated) [Nandrolone]	1.06
CC12CCC(=O)C=C1CCC1C2CCC2(C)C(O)CCC12 (configuration not stated) [Testosterone]	1.05
CS(=O)CCCCC(=NO)SC1OC(CO)C(O)C(O)C1O (configuration not stated) [Desulfo Glucoraphanin]	6.61
CN1C(=O)CN=C(c2ccccc2)c2cc([N+](=O)[O-])ccc21 [Nimetazepam]	0.98
CC(CCCCC(=O)Nc1ccc(C(F)(F)F)cc1)NCCc1cnc[nH]1 (configuration not stated) [Histamine-trifluoromethyltoluide]	5.3
O=C(O)CP(=O)(O)O [Phosphonoacetic acid]	9.73
CC(C)CN [Isobutylamine]	5.04
O=c1cccc[nH]1 [2-Pyridone]	2.05
CN=C(N)NCCCC(N)C(=O)O (configuration not stated) [Targinine]	9.22
CC(=O)NC(Cc1cnc[nH]1)C(=O)O (configuration not stated) [N-Acetylhistidine]	8.07
CC(=O)NC(CCC(=O)O)C(=O)O (configuration not stated) [N-Acetylglutamic acid]	7.67
CCOC(=O)COc1cc(-c2nn(C)c(OC(F)F)c2Cl)c(F)cc1Cl [Pyrafluefen-ethyl]	1.02
Cc1c2oc3c(C)ccc(C(=O)NC4C(=O)NC(C(C)C)C(=O)N5CCCC5C(=O)N(C)CC(=O)N(C)C(C(C)C)C(=O)OC4C)c3nc-2c(C(=O)NC2C(=O)NC(C(C)C)C(=O)N3CCCC3C(=O)N(C)CC(=O)N(C)C(C(C)C)C(=O)OC2C)c(N)c1=O (configuration not stated) [Actinomycin D]	1.03
CC(C)N=c1cc2n(-c3ccc(Cl)cc3)c3ccccc3nc-2cc1Nc1ccc(Cl)cc1 [Clofazimine]	1.78
CNCCC(Oc1ccccc1C)c1ccccc1 (configuration not stated) [Atomoxetine]	2.42
NCC(O)c1ccccc1 (configuration not stated) [Phenylethanolamine]	5.51

Structure (SMILES)	LC retention time [min]
NCC1CCC(C(=O)O)CC1 (configuration not stated) [4-Aminomethylcyclohexanecarboxylic acid]	6.6
O=C(O)CNC(=O)c1ccco1 [N-(2-Furoyl)glycine]	4.01
O=C(C=Cc1ccc(O)c(O)c1)OC1CC(O)(C(=O)O)CC(O)C1O (configuration not stated) [Chlorogenic acid]	6.68
Cc1sc(N)c(C(=O)c2cccc(C(F)(F)F)c2)c1C	0.94
CCN(CC)CCOC(=O)C(O)(c1ccccc1)c1ccccc1 [Benactyzine]	2.16
NCCCCC(N)C(=O)NCC(=O)O (configuration not stated) [Lys-Gly]	9.84
CCNC(C)Cc1ccc2c(c1)OCO2 (configuration not stated) [3,4-Methylenedioxyethamphetamine]	2.94
O=c1ncc(F)c[nH]1 [5-Fluro-2-pyrimidone]	1.77
CC12CCC(=O)C=C1CCC1C2CCC2(C)C1CCC2(O)C(=O)CO (configuration not stated) [Cortodoxone]	1.15
CSCCCN [3-Methylthiopropylamine]	5.16
NNCCc1ccccc1 [Phenelzine]	4.45
CCCCCCCCCCCCCCC(O)C(O)C(N)CO (configuration not stated) [Phytosphingosine]	5.18
CC1CCCC(O)CCCCCc2cc(O)cc(O)c2C(=O)O1 (configuration not stated) [Zeranol]	1.11
O=C(O)c1cccnc1C(=O)O [Quinolinic acid]	2.16
OCCN1CCN(CCCN2c3ccccc3Sc3ccc(C(F)(F)F)cc32)CC1 [Fluphenazine]	2.74
O=c1ccn(C2OC(CO)C(O)C2O)c(=O)[nH]1 (configuration not stated) [Uridine]	4.72
COc1c(N2CC3CCCNC3C2)c(F)cc2c(=O)c(C(=O)O)cn(C3CC3)c12 (configuration not stated) [Moxifloxacin]	4.69
Nc1ccc2cn[nH]c2c1 [6-Aminoindazole]	1.26
NC(=O)CCC(NC(=O)Cc1ccccc1)C(=O)O (configuration not stated) [Phenylacetylglutamine]	6.03
COc1ccc(OC)c(C(O)C(C)N)c1 (configuration not stated) [Methoxamine]	4.75

Structure (SMILES)	LC retention time [min]
CC(C)CC(N(C)C)C1(c2ccc(Cl)cc2)CCC1 (configuration not stated) [Sibutramine]	1.86
Nc1ncnc2c1ncn2C1OC2COP(=O)(O)OC2C1O (configuration not stated) [Adenosine 3',5'-cyclic monophosphate]	7.62
CC(Cc1ccccc1)N(C)Cc1ccccc1 (configuration not stated) [Benzphetamine]	2.03
CN(C)CCc1c[nH]c2ccc(Cn3cncn3)cc12 [Rizatriptan]	5.11
CNCCCCC(N)C(=O)O (configuration not stated) [N-Methyllysine]	9.36
COc1ccc2nc(S(=O)Cc3ncc(C)c(OC)c3C)[nH]c2c1 (configuration not stated) [Omeprazole]	1.35
NC(Cc1ccc(O)cc1)C(=O)NC(Cc1ccc(O)cc1)C(=O)O (configuration not stated) [Tyr-Tyr]	7.38
O=C(O)CNC(=O)OCc1ccccc1 [N-Benzyloxycarbonylglycine]	7.67
COc1ccc2[nH]cc(C3=CCNCC3)c2c1	4.61
CCC(C)C(NC(=O)C(C)N)C(=O)O (configuration not stated) [Ala-Ile]	7.83
CC(N)C(=O)NC(CCC(N)=O)C(=O)O (configuration not stated) [Ala-Gln]	9.11
CC(=O)NC(CCCN=C(N)N)C(=O)O [N-.alpha.-Acetyl-L-arginine]	8.16
O=C(O)c1cccnc1 [Nicotinic acid]	4.01
CN1CCN(C2=Nc3cc(F)ccc3Cc3ccccc32)CC1 [Fluperlapine]	2.3
O=C(NCCN1CCOCC1)c1ccc(Cl)cc1 [Moclobemide]	2.03
Fc1ccc(C2CCNCC2COc2ccc3c(c2)OCO3)cc1 (configuration not stated) [Paroxetine]	3.08
COc1ccc2c3c1OC1CC(O)C=CC31CCN(C)C2 (configuration not stated) [Galanthamine]	4.62
CC(C)(C)NC(=O)C1CC2CCCCC2CN1CC(O)C(Cc1ccccc1)NC(=O)C(CC(N)=O)NC(=O)c1ccc2ccccc2n1 (configuration not stated) [Saquinavir]	2.85
COc1cc(C2c3cc4c(cc3C(OC3OC5COC(C)OC5C(O)C3O)C3COC(=O)C23)OCO4)cc(OC)c1O (configuration not stated) [Etoposide]	1.3

The next lines start with the values.

LC retention time [min]	Structure (SMILES)
3.6	CC(C)C(=O)NCC(=O)O [N-Isobutyrylglycine]
0.89	CCCCCCCCCCCC(CC1OC(=O)C1CCCCCC)OC(=O)C(CC(C)C)NC=O (configuration not stated) [Orlistat]
9.52	Cc1cc2nc3c(=O)[nH]c(=O)nc-3n(CC(O)C(O)C(O)COP(=O)(O)OP(=O)(O)OCC3OC(n4cnc5c(N)ncnc54)C(O)C3O)c2cc1C (configuration not stated)
2.49	CCCN1CCCCC1C(=O)Nc1c(C)cccc1C (configuration not stated) [Ropivacaine]
7.3	O=c1[nH]c(=O)c2ncn(C3OC(CO)C(O)C3O)c2[nH]1 (configuration not stated) [Xanthosine]
2.44	COc1cc2c(cc1OC)C(=O)C(CC1CCN(Cc3ccccc3)CC1)C2 (configuration not stated) [Donepezil]
2.95	CN1CCCC(n2nc(Cc3ccc(Cl)cc3)c3ccccc3c2=O)CC1 (configuration not stated) [Azelastine]
1.47	OCC1OC(n2cnc3c(NC4CCCC4)nc(Cl)nc32)C(O)C1O (configuration not stated) [2-Chloro-N6-cyclopentyladenosine]
1.28	O=C(O)CCc1c[nH]c2ccccc12 [3-Indolepropionic acid]
1.99	CC(COc1ccccc1Cc1ccccc1)N1CCCCC1 (configuration not stated) [Benproperine]
1.46	COC(=O)C1=C(C)NC(C)=C(C(=O)OC2CCCN(Cc3ccccc3)C2)C1c1cccc([N+](=O)[O-])c1 (configuration not stated) [Benidipine]
1.1	O=C(C=CC=Cc1ccc2c(c1)OCO2)N1CCCCC1 [Piperine]
7.24	NCCCNCCCCNCCCN [Spermine]
1.56	O=C(O)C1CCC(C(=O)O)CC1 (configuration not stated) [1,4-Cyclohexanedicarboxylic acid]
7.37	CS(=O)CCCCC(=NOS(=O)(=O)O)SC1OC(CO)C(O)C(O)C1O (configuration not stated) [Glucoraphanin]
8.44	NC(CO)C(=O)NC(Cc1ccc(O)cc1)C(=O)O (configuration not stated) [Ser-Tyr]
1.07	CC(=O)OC1CC(C)(C)C(=C=CC(C)=CC=CC(C)=CC=CC=C(C)C=CC=C(C)C(=O)CC23OC2(C)CC(O)CC3(C)C)C(C)(O)C1 (configuration not stated) [Fucoxanthin]
4.87	NC1CCN(c2nc3c(cc2F)c(=O)c(C(=O)O)cn3-c2ccc(F)cc2F)C1 (configuration not stated) [Tosufloxacin]
7.42	NC(CC(=O)O)c1ccc(O)cc1 (configuration not stated) [3-Amino-3-(4-hydroxyphenyl)propionic acid]
4.58	COc1ccccc1N1CCN(CCCNc2cc(=O)n(C)c(=O)n2C)CC1 [Urapidil]
4.24	CCOC(=O)C1=C(COCCN)NC(C)=C(C(=O)OC)C1c1ccccc1Cl (configuration not stated) [Amlodipine]
2.23	CCC1C(=O)OCC1Cc1cncn1C (configuration not stated) [Pilocarpine]
0.91	O=C(O)CCC(O)C(=O)O (configuration not stated) [2-Hydroxyglutaric acid]
1.18	COC1C=COC2(C)Oc3c(C)c(O)c4c(O)c(c5c(nc6cc(C)ccn65)c4c3C2=O)NC(=O)C(C)=CC=CC(C)C(O)C(C)C(O)C(C)C(OC(C)=O)C1C (configuration not stated) [Rifaximin]
1.49	CN1C(=O)CCC1c1cccnc1 (configuration not stated) [Cotinine]
7.66	CC(C)C(NC(=O)C(N)CCC(=O)O)C(=O)NC(Cc1ccccc1)C(=O)O (stereo not drawn) [Glu-Val-Phe]
2.85	O=C(O)CCCCC1SCC2NC(=O)NC21 (configuration not stated) [Biotin]
1.69	Cn1c(=O)[nH]c2ncn(C)c2c1=O [1,7-Dimethylxanthine]

Reference: the RepoRT retention time repository
